According to the NIST ThermoML archive (doi:10.1016/j.fluid.2014.11.020):
± gives the expanded uncertainty stated by the source.

Assay: activity coefficient (dimensionless); of the first substance listed, at infinite dilution; xn = mol fraction of the nth substance listed
Conditions: Liquid, Chromatography, x1 = 0

Compound	activity coefficient (323.15 K)	activity coefficient (333.15 K)	activity coefficient (343.15 K)
CCCCCC [hexane] + CN(C)c1cc[n+](COCCCOC[n+]2ccc(N(C)C)cc2)cc1.O=S(=O)([N-]S(=O)(=O)C(F)(F)F)C(F)(F)F.O=S(=O)([N-]S(=O)(=O)C(F)(F)F)C(F)(F)F	7.4 ± 0.5	5.82 ± 0.4	4.7 ± 0.32
Cc1ccccc1C [1,2-dimethylbenzene] + CCCCCCCCn1cc[n+](COCCCOC[n+]2ccn(CCCCCCCC)c2C)c1C.O=S(=O)([N-]S(=O)(=O)C(F)(F)F)C(F)(F)F.O=S(=O)([N-]S(=O)(=O)C(F)(F)F)C(F)(F)F	0.68 ± 0.05	0.66 ± 0.05	0.66 ± 0.05
CCCCCCCCCCCC [dodecane] + CCCOC[n+]1ccn(C)c1.F[B-](F)(F)F	1160 ± 80	1160 ± 80	1150 ± 79
CO [methanol] + CCCOC[n+]1ccn(C)c1.N#C[N-]C#N	0.44 ± 0.04	0.44 ± 0.04	0.45 ± 0.04
C#CCCCCC [1-heptyne] + CCCOC[n+]1ccn(C)c1.F[B-](F)(F)F	16.6 ± 1.1	16.7 ± 1.1	16.7 ± 1.1
C#CCCCC [1-hexyne] + Cn1cc[n+](COCCCOC[n+]2ccn(C)c2)c1.N#C[N-]C#N.N#C[N-]C#N	15.8 ± 1.1	15.2 ± 1	14.6 ± 1
c1ccncc1 [pyridine] + CCCOC[n+]1ccn(C)c1.N#C[N-]C#N	0.91 ± 0.06	0.93 ± 0.06	0.97 ± 0.06
C1CCCCCC1 [cycloheptane] + CCCCCCCCn1cc[n+](COCCC)c1C.N#C[N-]C#N	15.7 ± 1.1		
C[N+](=O)[O-] [nitromethane] + CCCOC[n+]1ccn(C)c1.O=S(=O)([N-]S(=O)(=O)C(F)(F)F)C(F)(F)F	0.55 ± 0.04	0.53 ± 0.04	0.53 ± 0.04
Cc1ccccc1 [toluene] + N#C[N-]C#N.N#C[N-]C#N.c1ccc(Cn2cc[n+](COCCCOC[n+]3ccn(Cc4ccccc4)c3)c2)cc1	5.08 ± 0.35	4.97 ± 0.34	4.8 ± 0.33
C1CCCCCC1 [cycloheptane] + CCCCCCCCn1cc[n+](COCCC)c1C.O=S(=O)([N-]S(=O)(=O)C(F)(F)F)C(F)(F)F	6.43 ± 0.44	8.72 ± 0.6	11.5 ± 0.78
CC1CCCCC1 [methylcyclohexane] + CCCOC[n+]1ccn(Cc2ccccc2)c1.N#C[N-]C#N	21.3 ± 1.5	20.4 ± 1.4	18.2 ± 1.2
c1ccsc1 [thiophene] + CCCOC[n+]1ccn(Cc2ccccc2)c1.O=S(=O)([N-]S(=O)(=O)C(F)(F)F)C(F)(F)F	0.7 ± 0.05	0.62 ± 0.04	0.62 ± 0.04
CO [methanol] + N#C[N-]C#N.N#C[N-]C#N.c1ccc(Cn2cc[n+](COCCCOC[n+]3ccn(Cc4ccccc4)c3)c2)cc1	0.52 ± 0.04	0.51 ± 0.04	0.52 ± 0.04
CCCC(C)=O [pentan-2-one] + Cn1cc[n+](COCCCOC[n+]2ccn(C)c2)c1.O=S(=O)([N-]S(=O)(=O)C(F)(F)F)C(F)(F)F.O=S(=O)([N-]S(=O)(=O)C(F)(F)F)C(F)(F)F	0.62 ± 0.04	0.65 ± 0.04	0.63 ± 0.04
c1ccsc1 [thiophene] + CN(C)c1cc[n+](COCCCOC[n+]2ccc(N(C)C)cc2)cc1.O=S(=O)([N-]S(=O)(=O)C(F)(F)F)C(F)(F)F.O=S(=O)([N-]S(=O)(=O)C(F)(F)F)C(F)(F)F	0.55 ± 0.04	0.56 ± 0.04	0.57 ± 0.04
Cc1ccc(C)cc1 [1,4-dimethylbenzene] + CCCOC[n+]1ccn(C)c1.F[B-](F)(F)F	10.7 ± 0.73	10.3 ± 0.7	10.2 ± 0.7
ClC(Cl)Cl [trichloromethane] + CCCCCCCCn1cc[n+](COCCC)c1C.N#C[N-]C#N	0.27 ± 0.03	0.3 ± 0.03	0.33 ± 0.03
Cc1cccc(C)c1 [1,3-dimethylbenzene] + CCCCCCCCn1cc[n+](COCCC)c1C.N#C[N-]C#N	1.54 ± 0.1	1.54 ± 0.1	1.57 ± 0.1
CC1CCCC1 [methylcyclopentane] + CN(C)c1cc[n+](COCCCOC[n+]2ccc(N(C)C)cc2)cc1.O=S(=O)([N-]S(=O)(=O)C(F)(F)F)C(F)(F)F.O=S(=O)([N-]S(=O)(=O)C(F)(F)F)C(F)(F)F	11 ± 0.75	9.51 ± 0.65	9 ± 0.61
Cc1cccc(C)c1 [1,3-dimethylbenzene] + CCCOC[n+]1ccn(Cc2ccccc2)c1.O=S(=O)([N-]S(=O)(=O)C(F)(F)F)C(F)(F)F	1.55 ± 0.1	1.37 ± 0.09	1.35 ± 0.09
CO [methanol] + CCCOC[n+]1ccn(C)c1.O=S(=O)([N-]S(=O)(=O)C(F)(F)F)C(F)(F)F	1.2 ± 0.08	1.12 ± 0.07	1.04 ± 0.07
